# According to patent US4717722A, “Substituted 1-oxa-dethiacephalosporins as anti-inflammatory and antidegenerative agents” (Merck & Co., Inc., priority 1984, dated 1988):
# Target: T1, Human Polymorphonuclear Leukocyte Elastase (Homo sapiens, UniProt P08246)
# T1 construct: Crude extract of human polymorphonuclear leukocytes (PMN) containing elastase activity; endogenous in cells; host or cells: human polymorphonuclear leukocytes (PMN), crude extract
# T1 sequence (P08246 30-247 limits assumed): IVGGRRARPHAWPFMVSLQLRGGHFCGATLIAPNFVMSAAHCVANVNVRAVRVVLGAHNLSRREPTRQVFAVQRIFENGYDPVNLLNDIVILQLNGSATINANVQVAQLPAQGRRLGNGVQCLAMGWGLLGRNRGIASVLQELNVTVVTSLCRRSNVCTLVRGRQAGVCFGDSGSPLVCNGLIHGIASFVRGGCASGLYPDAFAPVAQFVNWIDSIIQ
# Experiment: Inhibition of human polymorphonuclear leukocyte elastase via hydrolysis of Boc-AAPAN
# Assay type: biochemical
# Conditions: effective dosage for 50% inhibition of the enzyme activity 2 minutes after zero time; crude PMN extract, 0.2 mM Boc-AAPAN, pH 7.5; read-out: ED50 (the source's name) (converted)
# Procedure: Enzyme Assays for the Inhibition of Human Polymorphonuclear Leukocyte Elastase Via Hydrolysis of N-t-Boc-alanyl-alanyl-prolylalanine-p-nitroanilide Reagents
# 0.05 M TES (N-tris[hydroxymethyl]methyl-2-amino-ethanesulfonic acid) Buffer, pH 7.5.
# 0.2 mM N-t-Boc-alanyl-alanyl-prolyl-alanine-p-nitroanilide (Boc-AAPAN).
# To prepare substrate, the solid (m.w. 550) was first dissolved in 10.0 ml DMSO. Buffer at pH 7.5 was then added to a final volume of 100 ml.
# Crude extract of human polymorphonuclear leukocytes (PMN) containing elastase activity.
# Inhibitors (cephalosporin sulfone esters) to be tested dissolved in DMSO just before use.
# To 1.0 ml of 0.2 mM Boc-AAPAN in a cuvette, 0.01-0.1 ml of DMSO with or without inhibitor was added. After mixing, a measurement was taken at 410 mμ to detect any spontaneous hydrolysis due to presence of test compound. 0.05 Milliliters of PMN extract was then added and the ΔOD/min at 410 mμ was measured and recorded. Beckman model 35 spectrophotometer was used.
# Results were reported as ED50, i.e., effective dosage in micrograms per milliliter (μg/ml) for 50% inhibition of the enzyme activity 2 minutes after zero time.
# The elastase activity in the crude PMN extract may vary from one preparation to another. A control of each new batch is run, and the volume added in the assay procedure is adjusted according to activity.
row,IC50 [µM],Compound
1,≥ 36.5,COC(=O)C1=C(CSc2nnnn2C)COC2N1C(=O)C2(NC(=O)C(C(=O)OC)c1ccc(O)cc1)OC (stereo not shown)
2,29,COC1(NC(=O)C(C(=O)OCc2ccccc2)c2ccc(O)cc2)C(=O)N2C(C(=O)OCc3ccccc3)=C(C)COC21 (stereo not shown)
3,12.7,CC1=COC2C(NC(=O)c3ccccc3)C(=O)N2C1C(=O)OCc1ccccc1 (stereo not shown)
4,51,CC1=C(C(=O)OCc2ccccc2)N2C(=O)C(NC(=O)c3ccccc3)C2OC1 (stereo not shown) [C6 H5 CONH]
